Key:
Bovine CA II = target: T1, Bovine CA II (Bos taurus, UniProt P00921); assay: CA II inhibition, CO2 hydration, Maren's micromethod (E-I technique); type: biochemical; details: 0C, veronal buffer, calculated as for the monomer for complexes
T1 construct: purchased Sigma Chemical Co
Text: (§1) Introduction Sulfonamide inhibitors of the zinc enzyme carbonic anhydrase (CA, EC 4.2.1.1) are widely used pharmacological agents in the treatment of a variety of disorders. […] 3,11 As we are also interested in exploring the coordination chemistry of sulfonamide CA inhibitors, in addition to their pharmacological applications, 1,4,11 a study is reported here on the preparation and characterization of metal complexes containing 4 and divalent metal ions such as Co(II), Ni(II), Cu(II), Zn(II), and Cd(II). In fact 4 is the first disulfonamide for which such a study was done. Here we report the data on these new derivatives, as well as their inhibition properties against two isozymes, CA I and CA II. Mention should be made that CA I inhibition data for the parent ligand, 1,3,4-thiadiazole-2,5- disulfonamide are published here for the first time. Materials and Methods Melting points were recorded on a heating plate microscope and are not corrected. FTIR spectra were obtained on thin films of pure compound, with a Perkin Elmer 1600 instrument, in the range 200 4000 cm"1. Electronic spectra were obtained by the diffuse reflectance technique in MgO as reference, with a Perkin Elmer Lambda 17 apparatus. Conductimetric measurements were done in DMF solutions, at 25C (concentrations of 1 mM of complex) with a Fisher conductimeter. 1n- and 13C-NMR data were obtained in DMSO-d as solvent with a Varian Gemmini 300 spectrometer. Chemical shifts are expressed as values relative to tetramethylsilane as internal standard. […] Thermogravimetric measurements were done in air, at a heating rate of 10C/min., with a Perkin Elmer 3600 thermobalance. Sulfonamide 4 used in the syntheses was prepared as described earlier by us.11 Metal salts, organic reagents used for preparing the ligand 4 and solvents were from Aldrich and were used without additional purification. Bovine CA II and human CA I was from Sigma Chemical Co. Inhibitors were assayed by […] micromethod 12, in the conditions of the E-I (enzyme-inhibitor) technique, at 0C in veronal buffer. IC0 values represent the molarity of inhibitor producing a 50% decrease of CA specific activity for the CO2 hydration reaction. […] The precipitated complexes were filtered and air dried. […] According to our method 6a the coordination compounds of sulfonamides were prepared starting from the sodium salt of the ligand, in aqueous milieu, whereas according to Borras' group they were obtained in the presence of ammonia (or other amines, such as pyridine, ethylenediamine, imidazole, etc), in alcohol as solvent.14 In such cases, the amines are also coordinated to the metal ions, in addition to the sulfonamide ligands. In the present study, we prepared and characterized both types ofderivatives, working with the sodium salt of4, but also with the ligand in the presence of ammonia, in both cases in a 1:1 molar ratio ligand:metal salt. […] Table I: Complexes 5-14 prepared and their elemental analysis data (S stands for the doubly deprotonated species of sulfonamide 4). […] Table II: Spectroscopic, magnetic and conductimetric data for complexes 5-10 as compared to ligands 4. Comp. IR.

human CA I = target: T2, human CA I (Homo sapiens, UniProt P00915); assay: CA I inhibition, CO2 hydration, Maren's micromethod (E-I technique); type: biochemical; details: 0C, veronal buffer, calculated as for the monomer for complexes
T2 construct: purchased Sigma Chemical Co
Text: as §1

T2 sequence (P00915 whole entry): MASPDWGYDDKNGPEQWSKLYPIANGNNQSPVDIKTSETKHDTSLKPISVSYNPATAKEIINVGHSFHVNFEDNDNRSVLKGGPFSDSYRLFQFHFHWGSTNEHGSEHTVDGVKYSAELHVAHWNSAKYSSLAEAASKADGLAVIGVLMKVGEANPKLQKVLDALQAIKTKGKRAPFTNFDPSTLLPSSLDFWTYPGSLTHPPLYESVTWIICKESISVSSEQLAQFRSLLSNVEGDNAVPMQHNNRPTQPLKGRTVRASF
T1 sequence (P00921 whole entry): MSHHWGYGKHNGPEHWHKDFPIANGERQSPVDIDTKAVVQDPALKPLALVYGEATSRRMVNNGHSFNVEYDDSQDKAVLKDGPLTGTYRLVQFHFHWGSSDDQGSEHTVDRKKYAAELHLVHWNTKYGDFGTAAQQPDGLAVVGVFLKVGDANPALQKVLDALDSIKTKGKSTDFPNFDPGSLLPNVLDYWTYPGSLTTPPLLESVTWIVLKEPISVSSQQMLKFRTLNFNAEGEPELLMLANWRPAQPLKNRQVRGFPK

| Substance | IC50 (Bovine CA II) | IC50 (human CA I) |
| --- | --- | --- |
| [CdS(NH3)2]o [Compound 14] | 19 nM | 185 nM |
| [CdS(OH2)2] [Compound 9] | 17 nM | 180 nM |
| [CoS(NH3)2]n [Compound 10] | 42 nM | 360 nM |
| [CuS(NH3)2] [Compound 12] | 27 nM | 185 nM |
| [CuS(OH2)2]n [Compound 7] | 24 nM | 175 nM |
| [NiS(NH3)2], [Compound 11] | 41 nM | 440 nM |
| [NiS(OH2)2]n [Compound 6] | 45 nM | 390 nM |
| [ZnS(NH3)2] [Compound 13] | 22 nM | 205 nM |
| [ZnS] [Compound 8] | 28 nM | 210 nM |

Reference: article PMC2364987 (Metal-Based Drugs, 1995)
